Measured values from patent US9446093B2, “Injectable aqueous ophthalmic composition and method of use therefor” (Alcon Research Ltd., priority 2009, dated 2016).

Experiment: pKa, charge and solubility of the amine groups of the polymer

## Poly-L-lysine
  pKa value of the amine groups: approximately 10.5
